The record followed here is patent publication US20070048385A1, “Microcapsules by coacervation containing a pharmaceutical incorporated in the coating polymer” (priority 2003, published 2007).

The nature of data set [1]: Dissolution test at pH 6.8 according to USP 26. Type of data set: physicochemical. On the procedure: A dissolution test is carried out on the microcapsules thus obtained comparing them with anhydrous theophylline in crystalline form.
The dissolution test was performed according to USP 26.
A dissolution test is carried out on the microcapsules obtained in Examples 5 and 6 according to the method previously described for Example 4
Dissolution test was performed according to USP 26
A dissolution test is carried out on the microcapsules thus obtained compared to fluoxetine raw material.

Data set [2] in a line: Dissolution test at pH 1.2 according to USP 26. The format is physicochemical. The following applies: caffeine. On the procedure:
The microcapsules obtained, when analysed with an electronic microscope (FIG. 3), show a distribution of the particles of the active principle within the polymeric membrane in the form of solid particles that are prevalently disposed at the interface between the polymer and the core. […] Dissolution test was performed according to USP 26.

Consider `CNCCC(Oc1ccc(C(F)(F)F)cc1)c1ccccc1` (stereo not shown) [Fluoxetine], for which, in data set [1] (fluoxetine), the “Dissolution % at pH 6.8, 5 min” value is on record as 55% and the “Dissolution % at pH 6.8, 10 min” value came out at 75%. Moreover, the “Dissolution % at pH 6.8, 20 min” value in data set [1] (20 min, fluoxetine) is reported as 100%.
With `Cn1c(=O)c2c(ncn2C)n(C)c1=O` [Caffeine], the “Dissolution % at pH 1.2, 60 min” value in data set [2] is reported as 100%.
In the case of `Cn1c(=O)c2[nH]cnc2n(C)c1=O` [Anhydrous Theophylline], in data set [1] (theophylline), the “Dissolution % at pH 6.8, 5 min” value is recorded as 65%. Besides, the “Dissolution % at pH 6.8, 10 min” value in data set [1] (theophylline, T2 second head) came out at 100%. Besides, the “Dissolution % at pH 6.8, 15 min” value in data set [1] (15 min, theophylline) is recorded as 100%.
